Laboratory results: PMC8218751, “Visualizing Borrelia burgdorferi Infection Using a Small-Molecule Imaging Probe” (Journal of Clinical Microbiology, 2021)

Legend:
B. burgdorferi [1] = test: B. burgdorferi live bacterial imaging; assay type: cell-based, Borrelia burgdorferi
Method: B. burgdorferi strain B31 was obtained from ATCC (ATCC catalog number ATCC-35210). Cultures were grown in Barbour-Stoenner-Kelly medium (BSK-II) created using the Barbour protocol ([19]) without gelatin and supplemented with 6 % rabbit serum (Pel-Freez catalog number 31128-5) at 34°C. Low-passage-number cultures (less than 4) were utilized. Later-stage morphological variants were obtained by increasing culture time to approximately 8 days to achieve a density of ∼10^8/ml counted under dark-field microscopy.
[…] germ agglutinin (WGA) conjugated with Alexa 488 at 10 μg per ml (Biotium catalog number 29022), and cells were then washed with fresh medium and mounted with Prolong Gold with 4′,6-diamidino-2-phenylindole (DAPI). Samples were imaged on a Zeiss Axio Imager upright microscope, using 63× oil objective, and visible light for differential […] contrast (DIC) imaging and excitation at 405, 488, or 633 nm for detection of DAPI, fluorescein isothiocyanate (FITC), or HS-198, respectively.

B. burgdorferi [2] = test: In vivo mouse model of B. burgdorferi infection, imaging of tissue sections; parameters: species or system mice; settings: 25 nmol via tail vein, 3 weeks after infection, 6 h postinjection; ear, tibiotarsal joint, spleen
Method: Ten-micrometer sections of frozen tissues were incubated with WGA (Biotium catalog number 29077) for 1 h in PBS. Tissues were washed and fixed with 3:1 methanol to acetic acid. Slides were incubated with FITC-conjugated B. burgdorferi polyclonal antibody (ThermoFisher, catalog number PA1-73005) for 1 h at room temperature. Noninjected or infected tissues were washed and incubated with 1 μM HS-198 for 30 min as control, and injected tissues were not incubated with HS-198. Slides were washed and mounted with DAPI Prolong Gold. Image studies were performed on a Zeiss Axio Imager upright microscope, using 63× oil objective, and visible light for DIC imaging and excitation at 405, 488, or 633 nm for detection of DAPI, FITC, or HS-198, respectively. Images were analyzed using FIJI software.
Seven C3H/HeN (Charles River Laboratories) female mice, 36 to 42 days old, were anesthetized with isoflurane gas, 1.5 to 2%. Mice were infected with 500,000 logarithmic-stage B. burgdorferi strain N40 spirochetes in <0.5 ml sterile saline by subcutaneous injection in the nape of the neck via 25-gauge needle. The N40 strain was selected for its infection kinetics and inflammatory pathology. The strain was obtained from an archival stock acquired by the Philip lab and was maintained exactly like strain B31 ([21]). […]

human Hsp90 = human Hsp90 (Homo sapiens, UniProt P07900); test: FLECS assay, elution of GFP-Hsp90 from ATP Sepharose; assay type: binding; parameters: His6 (N); made in house; host or cells: E. coli BL21(DE3); settings: in words
Method: Escherichia coli (strain BL21/DE3) genomic DNA was isolated from a lab culture generated from the cloning/expression bacterium (ThermoFisher catalog no. EC0114) by overnight proteinase K digestion at 56°C, high-salt clarification, and ethanol precipitation. […] Human Hsp90-alpha sequences were derived from cDNA generated from total mRNA of the human breast epithelial line, MCF10A. HtpG DNA sequences were PCR cloned from these DNAs using primers designed to allow in-frame cloning with GFP in the isopropyl-β-D-thiogalactopyranoside (IPTG)-inducible bacterial expression vector. […] Fusion protein cloning was done using the ligation-independent cloning procedure via single-nucleotide T4 DNA polymerase treatment of vector and purified PCR products followed by annealing of complementary single-strand ends before transformation into DH5 E. coli. […] Fusion protein synthesis was induced by incubation with 1 mM IPTG or autoinduction ([17]).
γ-linked ATP Sepharose matrix was generated as described previously by the Haystead lab ([18]). […] The clarified lysate was added to a column containing ATP-bound Sepharose. The column was washed with low-salt buffer (150 mM NaCl, 25 mM HEPES, pH 7.4, 1 mM dithiothreitol [DTT], and 60 mM MgCl2), followed by high-salt buffer (1 M NaCl, 25 mM HEPES, pH 7.4, 1 mM DTT, 0.1% IGEPAL, and 60 mM MgCl2) and once again low-salt buffer to remove unbound protein. Next, the resin with bound proteins (50 μl) was transferred to a 0.2-μm polyvinylidene fluoride filter 96-well plate (Corning) sitting on top of a black flat-bottomed 96-well catch plate (Corning). […] The eluted proteins were measured in a fluorescent plate reader to detect the GFP.
Subtle single amino acid differences are present within the catalytic clefts of these proteins, especially between residues that contact the nucleotide. […] After proteins are bound to the ATP Sepharose resin, small molecules with affinity for the ATP binding site will elute the GFP-fusion protein, which can readily be detected and quantified on a plate fluorometer. […]

With `Cc1nn(-c2ccc(C(=O)N(C)C)c(NCCCOCCOCCOCCOCCOCCCNCc3ccc(C(=C\C=C4/N(CCCCS(=O)(=O)O)c5ccccc5C4(C)C)/C=C/C4=[N+](CCCCS(=O)(=O)[O-])c5ccccc5C4(C)C)cc3)c2)c2c1C(=O)CC(C)(C)C2` [HS-198] the “Uptake, share of B. burgdorferi spirochetes” value (B. burgdorferi [1]; 10 μM, incubated 1 h) was over 90%, the “Accumulation in B. burgdorferi morphological states” value (B. burgdorferi [1]; 10 μM, spirochetes, blebs, aggregates, colocalization with DAPI) was “accumulates in B. burgdorferi in all of its morphological states” and the “Effect on B. burgdorferi morphology or motility” value (B. burgdorferi [1]; overnight incubation, live B. burgdorferi) was “does not appear to affect”. The “Detection of B. burgdorferi in tissue sections of infected mice” value (B. burgdorferi [2]) was “localization to sites of B. burgdorferi infection in mice” and the “Release of recombinant human GFP-Hsp90α from ATP Sepharose beads” value (human Hsp90) was “did not”.
